Source: patent publication US8192962B2, “Processes for detecting toxic substances” (Daikin Industries, Ltd., priority 2001, dated 2012)

Test system: Stress protein genes
Experiment: DNA chip mRNA expression in yeast, stress protein genes (Table 6)
Format: cell-based, Saccharomyces cerevisiae S288C
Description: Yeast (Saccharomyces cerevisiae S288C (α SUC2mal mel gap2 CUP1)) were incubated at 25° C. on YPD medium (yeast extract 1%, polypepton 2%, glucose 2%). One of toxic chemical substances was added to the cells at logarithmic growth phase, and the cells were further incubated for two hours. Cells were cultured without any chemical substance in the same condition, and were used as control. Concentrations of the chemical substances were defined to inhibit the growth of the yeast but not lead to death.
After completion of the incubation, the culture was centrifuged to collect the cells. To the cells, sodium acetate buffer (50 mM sodium acetate, 10 mM EDTA, 1% SDS) was added, and the mixture was shaken at 65° C. for five minutes, followed by returning to room temperature, and obtaining the supernatant, of which the procedures were repeated two times. To the supernatant, ½ amount of a solution of phenol/chloroform was added, and the mixture was centrifuged to give a supernatant, which was added with an equal amount of chloroform, and the mixture was centrifuged to give a supernatant. To the supernatant, an equal amount of isopropanol containing 0.3 M sodium acetate was added, and the mixture was allowed to stand at room temperature for 30 minutes, after which the mixture was centrifuged to give a sediment of the whole RNAs. Seventy % ethanol was added to the sediment, and the mixture was again centrifuged to give a sediment, which was then dried and dissolved in water. mRNA was isolated from the whole RNAs as followings. In view of the fact that a poly A chain is attached to the 3′ terminus of mRNA, a polynucleotide having a poly T structure which was immobilized on the surface of latex beads was used to trap the mRNA, and then the mRNA was washed and eluted with spine column (Oligotex-dT30<Super>mRNA Purification Kit, Takara). Reverse transcription of the mRNA was conducted with a reverse transcriptase (Super Script II Reverse Transcriptase; catalogue No. 18064-014, GibcoBRL) using fluorescence-labeled nucleotides to give cDNAs that were introduced with Cy3-dUTP or Cy5-dUTP during the reverse transcription.
The labeled cDNAs were dissolved in TE buffer (10mM Tris-HCl/1 mM EDTA, pH8.0), and the solution was dropped on the DNA chip containing the whole genes of yeast (DNA Chip Research Inc. Japan) so that the cDNAs were hybridized on the DNA chip at 65° C. for over 12 hours. The fluoresces intensity of the DNA chip was read with a scanner, and the ratio relative to the fluorescence intensity resulting from the absence of chemical substance was estimated as the following, which is shown in Tables 1 to 9: […]

Q: Which “The level of expressed mRNA in the presence of chemical substance/The level of expressed mRNA in the absence of chemical substance” value (yeast gene YAL005C) does the source give for CCCCCCCCCCCCc1ccc(S(=O)(=O)[O-])cc1.[Na+] [(17), sodium dodecylbenzosulfonate] here?
A: The value was 0.8.

Q: And the “The level of expressed mRNA in the presence of chemical substance/The level of expressed mRNA in the absence of chemical substance” value (yeast gene YAL015C)?
A: Its value is 1.1.

Q: What about the “The level of expressed mRNA in the presence of chemical substance/The level of expressed mRNA in the absence of chemical substance” value (yeast gene YBL075C) of the same compound?
A: The value was 1.2.

Q: What about the “The level of expressed mRNA in the presence of chemical substance/The level of expressed mRNA in the absence of chemical substance” value (yeast gene YBL093C) of the same compound?
A: The value was 1.4.

Q: What about the “The level of expressed mRNA in the presence of chemical substance/The level of expressed mRNA in the absence of chemical substance” value (yeast gene YBR044C) of the same compound?
A: Its value is 0.9.

Q: And the “The level of expressed mRNA in the presence of chemical substance/The level of expressed mRNA in the absence of chemical substance” value (yeast gene YBR054W)?
A: Its value is 0.7.

Q: And the “The level of expressed mRNA in the presence of chemical substance/The level of expressed mRNA in the absence of chemical substance” value (yeast gene YBR067C)?
A: The value was 0.5.

Q: What about the “The level of expressed mRNA in the presence of chemical substance/The level of expressed mRNA in the absence of chemical substance” value (yeast gene YBR072W) of the same compound?
A: The value was 1.8.

Q: And the “The level of expressed mRNA in the presence of chemical substance/The level of expressed mRNA in the absence of chemical substance” value (yeast gene YBR126C)?
A: Its value is 1.5.

Q: And the “The level of expressed mRNA in the presence of chemical substance/The level of expressed mRNA in the absence of chemical substance” value (yeast gene YBR169C)?
A: The value was 1.3.

Q: And the “The level of expressed mRNA in the presence of chemical substance/The level of expressed mRNA in the absence of chemical substance” value (yeast gene YCL035C)?
A: Its value is 2.6.

Q: And the “The level of expressed mRNA in the presence of chemical substance/The level of expressed mRNA in the absence of chemical substance” value (yeast gene YCR021C)?
A: Its value is 0.7.

Q: What about the “The level of expressed mRNA in the presence of chemical substance/The level of expressed mRNA in the absence of chemical substance” value (yeast gene YCR060W) of the same compound?
A: Its value is 1.2.

Q: What about the “The level of expressed mRNA in the presence of chemical substance/The level of expressed mRNA in the absence of chemical substance” value (yeast gene YCR083W) of the same compound?
A: The value was 1.3.

Q: And the “The level of expressed mRNA in the presence of chemical substance/The level of expressed mRNA in the absence of chemical substance” value (yeast gene YDL022W)?
A: Its value is 1.0.

Q: What about the “The level of expressed mRNA in the presence of chemical substance/The level of expressed mRNA in the absence of chemical substance” value (yeast gene YDL025C) of the same compound?
A: Its value is 1.0.

Q: What about the “The level of expressed mRNA in the presence of chemical substance/The level of expressed mRNA in the absence of chemical substance” value (yeast gene YDR033W) of the same compound?
A: The value was 0.7.

Q: What about the “The level of expressed mRNA in the presence of chemical substance/The level of expressed mRNA in the absence of chemical substance” value (yeast gene YDR077W) of the same compound?
A: The value was 1.4.

Q: And the “The level of expressed mRNA in the presence of chemical substance/The level of expressed mRNA in the absence of chemical substance” value (yeast gene YDR098C)?
A: The value was 1.0.

Q: What about the “The level of expressed mRNA in the presence of chemical substance/The level of expressed mRNA in the absence of chemical substance” value (yeast gene YDR155C) of the same compound?
A: The value was 1.2.

Q: What about the “The level of expressed mRNA in the presence of chemical substance/The level of expressed mRNA in the absence of chemical substance” value (yeast gene YDR258C) of the same compound?
A: The value was 1.3.

Q: And the “The level of expressed mRNA in the presence of chemical substance/The level of expressed mRNA in the absence of chemical substance” value (yeast gene YDR293C)?
A: The value was 1.4.

Q: And the “The level of expressed mRNA in the presence of chemical substance/The level of expressed mRNA in the absence of chemical substance” value (yeast gene YDR436W)?
A: Its value is 0.9.

Q: What about the “The level of expressed mRNA in the presence of chemical substance/The level of expressed mRNA in the absence of chemical substance” value (yeast gene YDR513W) of the same compound?
A: Its value is 1.3.

Q: What about the “The level of expressed mRNA in the presence of chemical substance/The level of expressed mRNA in the absence of chemical substance” value (yeast gene YDR519W) of the same compound?
A: Its value is 1.8.

Q: What about the “The level of expressed mRNA in the presence of chemical substance/The level of expressed mRNA in the absence of chemical substance” value (yeast gene YEL030W) of the same compound?
A: The value was 0.9.

Q: What about the “The level of expressed mRNA in the presence of chemical substance/The level of expressed mRNA in the absence of chemical substance” value (yeast gene YEL039C) of the same compound?
A: The value was 0.7.

Q: And the “The level of expressed mRNA in the presence of chemical substance/The level of expressed mRNA in the absence of chemical substance” value (yeast gene YER042W)?
A: The value was 0.7.

Q: And the “The level of expressed mRNA in the presence of chemical substance/The level of expressed mRNA in the absence of chemical substance” value (yeast gene YER057C)?
A: Its value is 1.1.

Q: What about the “The level of expressed mRNA in the presence of chemical substance/The level of expressed mRNA in the absence of chemical substance” value (yeast gene YER103W) of the same compound?
A: Its value is 1.4.

Q: What about the “The level of expressed mRNA in the presence of chemical substance/The level of expressed mRNA in the absence of chemical substance” value (yeast gene YER125W) of the same compound?
A: Its value is 1.0.

Q: And the “The level of expressed mRNA in the presence of chemical substance/The level of expressed mRNA in the absence of chemical substance” value (yeast gene YFL014W)?
A: Its value is 1.5.

Q: What about the “The level of expressed mRNA in the presence of chemical substance/The level of expressed mRNA in the absence of chemical substance” value (yeast gene YFL016C) of the same compound?
A: Its value is 1.2.

Q: What about the “The level of expressed mRNA in the presence of chemical substance/The level of expressed mRNA in the absence of chemical substance” value (yeast gene YFL020C) of the same compound?
A: The value was 1.5.

Q: What about the “The level of expressed mRNA in the presence of chemical substance/The level of expressed mRNA in the absence of chemical substance” value (yeast gene YFR052W) of the same compound?
A: The value was 1.2.

Q: What about the “The level of expressed mRNA in the presence of chemical substance/The level of expressed mRNA in the absence of chemical substance” value (yeast gene YGL073W) of the same compound?
A: Its value is 2.5.

Q: And the “The level of expressed mRNA in the presence of chemical substance/The level of expressed mRNA in the absence of chemical substance” value (yeast gene YGL115W)?
A: The value was 0.8.

Q: What about the “The level of expressed mRNA in the presence of chemical substance/The level of expressed mRNA in the absence of chemical substance” value (yeast gene YGL181W) of the same compound?
A: Its value is 1.0.

Q: And the “The level of expressed mRNA in the presence of chemical substance/The level of expressed mRNA in the absence of chemical substance” value (yeast gene YGR088W)?
A: The value was 0.9.

Q: What about the “The level of expressed mRNA in the presence of chemical substance/The level of expressed mRNA in the absence of chemical substance” value (yeast gene YHL028W) of the same compound?
A: The value was 1.6.

Q: And the “The level of expressed mRNA in the presence of chemical substance/The level of expressed mRNA in the absence of chemical substance” value (yeast gene YHL046C)?
A: The value was 0.9.

Q: What about the “The level of expressed mRNA in the presence of chemical substance/The level of expressed mRNA in the absence of chemical substance” value (yeast gene YHR030C) of the same compound?
A: The value was 2.0.

Q: And the “The level of expressed mRNA in the presence of chemical substance/The level of expressed mRNA in the absence of chemical substance” value (yeast gene YHR057C)?
A: The value was 1.6.

Q: And the “The level of expressed mRNA in the presence of chemical substance/The level of expressed mRNA in the absence of chemical substance” value (yeast gene YHR104W)?
A: Its value is 1.9.

Q: What about the “The level of expressed mRNA in the presence of chemical substance/The level of expressed mRNA in the absence of chemical substance” value (yeast gene YIL011W) of the same compound?
A: The value was 0.8.
